# Values of other authors, collected in patent publication US8541025B2, “Co-crystals and pharmaceutical formulations comprising the same” (Vertex Pharmaceuticals Incorporated, priority 2008, dated 2013).
# Read-outs that look alike come from different tables or passages of the source.
# Biological target: hepatitis C virus ("HCV") NS3/4A protease (Hepatitis C virus genotype 1a, UniProt P27958)
# Sequence (P27958 1027-1657): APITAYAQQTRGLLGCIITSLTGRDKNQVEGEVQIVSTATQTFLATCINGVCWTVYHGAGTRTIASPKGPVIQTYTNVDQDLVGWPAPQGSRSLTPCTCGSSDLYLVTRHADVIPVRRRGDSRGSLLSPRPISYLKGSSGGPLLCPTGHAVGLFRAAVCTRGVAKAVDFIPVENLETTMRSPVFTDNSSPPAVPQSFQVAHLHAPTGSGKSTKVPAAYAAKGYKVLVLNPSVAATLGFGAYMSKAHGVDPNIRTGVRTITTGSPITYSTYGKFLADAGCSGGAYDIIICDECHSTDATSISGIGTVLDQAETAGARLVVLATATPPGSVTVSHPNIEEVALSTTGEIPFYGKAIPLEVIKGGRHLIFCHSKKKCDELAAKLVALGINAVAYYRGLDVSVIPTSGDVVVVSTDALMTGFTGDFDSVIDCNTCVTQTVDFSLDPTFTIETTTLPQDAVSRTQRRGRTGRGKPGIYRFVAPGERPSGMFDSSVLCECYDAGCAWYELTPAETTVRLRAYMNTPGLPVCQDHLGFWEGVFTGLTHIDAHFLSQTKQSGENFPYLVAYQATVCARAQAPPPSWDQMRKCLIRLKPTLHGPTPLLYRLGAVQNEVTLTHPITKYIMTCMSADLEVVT
# Sequence (P27958 1658-1711): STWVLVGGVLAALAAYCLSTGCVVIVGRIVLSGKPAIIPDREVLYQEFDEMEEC
structure (smiles),measurement,setting,value
CC[C@H](NC(=O)[C@@H]1[C@H]2CCC[C@H]2CN1C(=O)[C@@H](NC(=O)C(NC(=O)c1cnccn1)C1CCCCC1)C(C)(C)C)C(=O)C(=O)NC1CC1 (some centres unmarked) [VX-950],Ki,"competitive, reversible inhibitor, read-out: steady state binding constant (ki*)",3 nM
same,Ki,read-out: Ki,8 nM
